Type in all cases: functional
Details in all cases: read-out: ED50 (the source's name)

Assay [1] relates to A549. Kind of assay: Cytotoxicity against human A549 cells.
Assay [2] relates to SK-OV-3. In words: Cytotoxicity against human SKOV3 cells.
Assay [3] concerns SK-MEL-2. In words: Cytotoxicity against human SK-MEL-2 cells.
Assay [4] concerns XF498. Kind of assay: Cytotoxicity against human XF498 cells.
Assay [5] concerns HCT-15. In words: Cytotoxicity against human HCT15 cells.

Converted amounts (≈) assume the structure as drawn.

Take `CCCCC/C=C\C/C=C\C/C=C\C[C@@]1(O)C=CC(=O)C1`: the EC50 in assay [1] stood at 5.4 µg/mL (≈ 18.7 µM); in assay [2], 4.4 µg/mL (≈ 15.3 µM); in assay [3] it was 2.6 µg/mL (≈ 9.01 µM); in assay [4], 4.9 µg/mL (≈ 17 µM); in assay [5], 2.9 µg/mL (≈ 10.1 µM).
The matching figures for `CCCCC/C=C\C/C=C\C/C=C\CO`: more than 30 µg/mL, 19.8 µg/mL (≈ 95 µM), 74.1 µg/mL (≈ 356 µM), 30 µg/mL (≈ 144 µM) and 25.5 µg/mL (≈ 122 µM).
The like results for `COc1cccc2c1C(=O)c1c(O)c3c(c(O)c1C2=O)C[C@@](O)(C(=O)CO)C[C@@H]3O[C@H]1C[C@H](N)[C@H](O)[C@H](C)O1` [DOXORUBICIN] were, in that order, 0.07 µg/mL (≈ 0.129 µM), 0.24 µg/mL (≈ 0.442 µM), 0.12 µg/mL (≈ 0.221 µM), 0.12 µg/mL (≈ 0.221 µM) and 0.17 µg/mL (≈ 0.313 µM).
The like results for `CCCCC/C=C\C/C=C\C/C=C\C[C@@]1(OC)C=CC(=O)O1` [HOMAXINOLIDE A] were, in that order, 10.1 µg/mL (≈ 33.2 µM), 16.1 µg/mL (≈ 52.9 µM), 2.7 µg/mL (≈ 8.87 µM), 9.9 µg/mL (≈ 32.5 µM) and 8.9 µg/mL (≈ 29.2 µM).
As for `CC/C=C\C/C=C\C/C=C\C/C=C\C[C@]1(OC)C=CC(=O)O1` [HOMAXINOLIDE B], the EC50 in assay [1] is 32.1 µg/mL (≈ 106 µM); in assay [2], more than 30 µg/mL; in assay [3] it was 4.5 µg/mL (≈ 14.9 µM); in assay [4], more than 30 µg/mL; in assay [5] it was 17.5 µg/mL (≈ 57.9 µM).
`CC/C=C/C/C=C\C/C=C\C/C=C\C[C@@]1(OC)C=CC(=O)O1` [HOMAXINOLIDE C]: the EC50 was more than 30 µg/mL in assay [1]; more than 30 µg/mL in assay [2]; 14.9 µg/mL (≈ 49.3 µM) in assay [3]; more than 30 µg/mL in assay [4]; 34.8 µg/mL (≈ 115 µM) in assay [5].

These data come from ChEMBL document CHEMBL1147271, “New cytotoxic metabolites from a marine sponge Homaxinella sp” (2004).
